Test results from the NIST ThermoML archive (doi:10.1016/j.jct.2016.06.031).
± gives the expanded uncertainty stated by the source.

Key:
[1] = Liquid; for mass density: 101.33 kPa, Vibrating tube method; for vapor or sublimation pressure: Closed cell (Static) method
[2] = refractive index (Na D-line) (dimensionless); settings: 101.33 kPa, Liquid, Standard Abbe refractometry

mass density ([1]; 293.15 K) | mass density ([1]; 295.15 K) | mass density ([1]; 297.15 K) | mass density ([1]; 298.15 K) | mass density ([1]; 300.4 K) | refractive index ([2]; 293.15 K) | refractive index ([2]; 298.15 K) | SMILES | vapor or sublimation pressure ([1]; 273.06 K) | vapor or sublimation pressure ([1]; 278.07 K) | vapor or sublimation pressure ([1]; 283.07 K) | vapor or sublimation pressure ([1]; 288.07 K) | vapor or sublimation pressure ([1]; 292.07 K)
683.8 ± 0.9 kg/m3 | 681.6 ± 0.9 kg/m3 | 679.9 ± 0.9 kg/m3 | 679.1 ± 0.9 kg/m3 | 677.1 ± 0.9 kg/m3 | 1.3878 ± 0.0007 | 1.3852 ± 0.0007 | CCCCCCC [heptane] | – | – | – | – | –
– | – | – | – | – | – | – | FC(F)(F)C(F)(F)F [hexafluoroethane] | 1839 ± 6 kPa | 2100 ± 6 kPa | 2388 ± 7 kPa | 2701 ± 7 kPa | 2972 ± 8 kPa
